Where “and” joins values, the source holds several entries; their conditions need not be identical. Identical values can stand only once. Counter-ions that a name gives are not always drawn.
Experiments:
FAKcd409 = target: T1, FAKcd409 (Homo sapiens, UniProt Q05397, P410T); assay: FAK HTS assay; type: biochemical; details: 10 uM compound, HTS Delphia assay; for % inhibition of FAK: 10 µM
T1 construct: comprises residues methionine 409 to glutamate 689; made in house; host or cells: baculovirus vector expression system
T1 sequence (Q05397 409-689 P410T): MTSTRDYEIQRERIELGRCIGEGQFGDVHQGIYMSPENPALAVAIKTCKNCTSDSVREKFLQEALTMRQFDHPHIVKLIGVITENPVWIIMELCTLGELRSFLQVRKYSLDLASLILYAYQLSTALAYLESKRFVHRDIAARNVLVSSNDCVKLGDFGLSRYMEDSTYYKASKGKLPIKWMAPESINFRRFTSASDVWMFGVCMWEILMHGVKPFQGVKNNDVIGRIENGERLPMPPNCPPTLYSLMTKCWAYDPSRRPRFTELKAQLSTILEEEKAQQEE

CHK1 = target: T2, CHK1 (Homo sapiens, UniProt O14757); assay: CHK1 high-throughput screening; type: biochemical; details: for % inhibition @ 20 μM: Table 4, repeated entries per example; for inhibition at 20 µM: read-out: % inhibition @ 20 μM, Table 4, repeated entries per example
T2 sequence (O14757 1-476): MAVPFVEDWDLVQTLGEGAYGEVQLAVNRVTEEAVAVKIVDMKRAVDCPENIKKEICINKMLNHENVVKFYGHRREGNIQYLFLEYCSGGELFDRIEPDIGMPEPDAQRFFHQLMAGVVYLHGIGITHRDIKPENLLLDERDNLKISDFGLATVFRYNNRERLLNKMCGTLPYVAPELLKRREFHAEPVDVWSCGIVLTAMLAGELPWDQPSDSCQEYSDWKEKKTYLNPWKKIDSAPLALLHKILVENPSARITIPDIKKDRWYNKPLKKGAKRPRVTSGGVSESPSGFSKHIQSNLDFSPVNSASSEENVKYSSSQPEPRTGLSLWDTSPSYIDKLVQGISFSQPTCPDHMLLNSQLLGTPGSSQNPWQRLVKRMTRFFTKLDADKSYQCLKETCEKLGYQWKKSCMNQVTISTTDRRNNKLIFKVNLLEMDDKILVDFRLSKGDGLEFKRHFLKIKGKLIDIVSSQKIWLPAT

[1] = target: T3, phosphorylated VEGF-R2Δ50 (FLVK-P) (Homo sapiens, UniProt P35968, DEL940-989/E990V); assay: VEGF-R2 coupled spectrophotometric (FLVK-P) assay; type: biochemical; details: for Ki: spectrophotometric assay; for inhibition at 0.05 µM: Table 3, at 50 nM
T3 construct: VEGF-R2Δ50 contains residues 806-939 and 990-1171; made in house; host or cells: baculovirus/insect cells
T3 sequence (P35968 with tags, fused parts or gaps DEL940-989/E990V limits assumed): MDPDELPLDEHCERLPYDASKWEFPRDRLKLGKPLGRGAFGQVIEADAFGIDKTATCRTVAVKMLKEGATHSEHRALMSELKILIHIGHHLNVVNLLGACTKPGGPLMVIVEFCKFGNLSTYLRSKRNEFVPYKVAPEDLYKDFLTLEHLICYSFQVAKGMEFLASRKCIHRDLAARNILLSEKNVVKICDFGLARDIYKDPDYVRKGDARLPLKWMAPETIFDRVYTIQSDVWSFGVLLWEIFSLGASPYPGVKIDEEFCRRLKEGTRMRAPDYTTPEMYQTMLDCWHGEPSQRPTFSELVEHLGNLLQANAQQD
Method in brief: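 Baculovirus-expressed human VEGF-R2Δ50 (residues 806-939/990-1171, E990V) was autophosphorylated with 3 mM ATP, 40 mM MgCl2 for 2 h at 4° C. ADP formation was coupled via PK/LDH to NADH oxidation, read at 340 nm, with 5.1 mM poly(E4Y1), 1 mM ATP, 25 mM MgCl2, Hepes pH 7.5. Ki came from activity across compound concentrations.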

[2] = system: human umbilical vein endothelial cells (HUVEC); assay: HUVEC proliferation assay; type: cell-based; details: Homo sapiens, HUVEC
Method in brief: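 Exponentially growing HUVEC were serum-starved 24 h (F12K + 1% FBS), pre-treated 1 h with compound (0.1% DMSO final), then stimulated with 6 ng/ml VEGF. Proliferation was read 72 h later by MTT reduction (A595). IC50 came from seven 0.5-log concentrations in triplicate; screens gave % inhibition relative to VEGF-only and starved wells.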

[3] = system: lung cancer cells (line MV522); assay: Cancer cell proliferation (MV522) assay; type: cell-based
CDK2/Cyclin A complex = CDK2/Cyclin A complex (Homo sapiens, UniProt P24941); assay: CDK2/Cyclin A assay; type: biochemical; details: Table 2
Method in brief: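 Radiometric assay: 150 nM CDK2/cyclin A (insect-cell CDK2, truncated cyclin A) phosphorylates His-tagged Rb fragment (residues 386-928) with 25 μM ATP plus [32P]ATP, pH 7.4 HEPES, 2% DMSO, 30 °C for 20 min. Filter-captured product counted by phosphorimager; apparent Ki from competitive or tight-binding inhibition fits.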

CDK4/Cyclin D3 complex = target: T4, CDK4/Cyclin D3 complex (Homo sapiens, UniProt P11802); assay: CDK4/Cyclin D assay; type: biochemical; details: Table 2
T4 construct: made in house; host or cells: insect cells co-infected with baculovirus vectors
T4 sequence (P11802 whole entry): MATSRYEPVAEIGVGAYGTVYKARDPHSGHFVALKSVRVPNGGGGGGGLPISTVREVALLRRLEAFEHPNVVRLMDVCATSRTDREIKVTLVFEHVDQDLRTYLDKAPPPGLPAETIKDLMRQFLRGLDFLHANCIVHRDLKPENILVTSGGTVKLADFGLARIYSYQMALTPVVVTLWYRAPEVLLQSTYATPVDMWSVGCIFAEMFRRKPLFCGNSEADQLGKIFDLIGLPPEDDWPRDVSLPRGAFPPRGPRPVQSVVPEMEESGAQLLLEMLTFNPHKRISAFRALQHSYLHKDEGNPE
T4 sequence (P30281 whole entry partner): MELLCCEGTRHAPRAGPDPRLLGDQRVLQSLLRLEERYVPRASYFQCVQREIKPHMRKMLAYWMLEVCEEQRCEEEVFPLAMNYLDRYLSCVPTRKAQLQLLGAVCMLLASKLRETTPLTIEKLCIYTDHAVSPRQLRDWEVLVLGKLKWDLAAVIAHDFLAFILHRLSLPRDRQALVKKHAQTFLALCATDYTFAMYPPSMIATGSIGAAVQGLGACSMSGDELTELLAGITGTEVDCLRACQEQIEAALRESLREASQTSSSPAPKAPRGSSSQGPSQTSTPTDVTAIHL
Method in brief: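 Insect-cell-expressed CDK4/cyclin D3 (50 nM) phosphorylating His-tagged Rb fragment (residues 386-928) with 25 μM [^32P]ATP in HEPES pH 7.4, MgCl2, 2% DMSO; 20 min at 30 °C, EDTA stop. Filter-captured 32P by phosphorimager; apparent Ki from competitive or tight-binding inhibition fits.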

[4] = target: T5, unphosphorylated VEGF-R2Δ50 (FLVK) (Homo sapiens, UniProt P35968, DEL940-989/E990V); assay: VEGF-R2 coupled spectrophotometric assay, unphosphorylated enzyme (FLVK); type: biochemical; details: Table 3; some entries 'Slow binder'
T5 construct: VEGF-R2Δ50 contains residues 806-939 and 990-1171; made in house; host or cells: baculovirus/insect cells
T5 sequence (P35968 with tags, fused parts or gaps DEL940-989/E990V limits assumed): as the sequence (P35968 with tags, fused parts or gaps DEL940-989/E990V limits assumed) above
Method in brief: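 Unphosphorylated VEGF-R2Δ50 (5 to 40 nM) with 20 mM poly(E4Y1), 3 mM ATP, 60 mM MgCl2, 2 mM MnCl2 in 200 mM Hepes pH 7.5. ADP production coupled via PK/LDH to NADH oxidation, read at 340 nm. Ki from activity at varying compound concentrations.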

FGF-R1 = target: T6, FGF-R1 (Homo sapiens, UniProt P11362, C488A/C584S/L457V); assay: FGF-R spectrophotometric assay; type: biochemical; details: Table 3; % inh @ 1 uM; read-out: FGF-P Ki (nM) (% inh @ 1 uM)
T6 construct: starting from the endogenous methionine residue 456 to glutamate 766; made in house; host or cells: baculovirus vector expression system
T6 sequence (P11362 456-766 L457V/C488A/C584S): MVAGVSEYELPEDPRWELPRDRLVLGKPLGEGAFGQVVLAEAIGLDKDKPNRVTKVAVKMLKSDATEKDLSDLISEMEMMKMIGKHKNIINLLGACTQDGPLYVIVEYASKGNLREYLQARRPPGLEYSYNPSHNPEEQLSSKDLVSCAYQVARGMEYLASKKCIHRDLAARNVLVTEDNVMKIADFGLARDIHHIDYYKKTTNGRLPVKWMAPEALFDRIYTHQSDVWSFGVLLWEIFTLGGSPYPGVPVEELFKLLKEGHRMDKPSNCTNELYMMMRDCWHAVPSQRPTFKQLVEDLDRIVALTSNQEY
Description: FGF-R1 Construct for Assay: The intracellular kinase domain of human FGF-R1 was expressed using the baculovirus vector expression system starting from the endogenous methionine residue 456 to glutamate 766, according to the residue numbering system of Mohammadi et al., Mol. Cell. Biol., 16, 977-989 (1996). In addition, the construct also has the following 3 amino acid substitutions: L457V, C488A, and C584S.
The spectrophotometric assay was carried out as described above for VEGF-R2, except for the following changes in concentration: FGF-R=50 nM, ATP=2 mM, and poly(E4Y1)=15 mM.

LCK tyrosine kinase = target: T7, LCK tyrosine kinase (Homo sapiens, UniProt P06239, C224D/P223M); assay: LCK spectrophotometric assay; type: biochemical; details: Table 3, read-out: LCK (% inh @ 1 uM)
T7 construct: starting from amino acid residue 223 to the end of the protein at residue 509; made in house; host or cells: insect cells
T7 sequence (P06239 223-509 P223M/C224D): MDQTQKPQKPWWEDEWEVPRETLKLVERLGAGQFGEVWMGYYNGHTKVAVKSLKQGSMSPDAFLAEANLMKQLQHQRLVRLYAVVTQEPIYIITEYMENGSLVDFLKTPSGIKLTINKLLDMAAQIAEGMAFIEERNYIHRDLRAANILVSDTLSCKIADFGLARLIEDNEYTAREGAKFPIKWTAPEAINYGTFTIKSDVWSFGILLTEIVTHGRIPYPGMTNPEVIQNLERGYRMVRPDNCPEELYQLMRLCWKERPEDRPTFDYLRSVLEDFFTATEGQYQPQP

Row | Compound | % inhibition of FAK (FAKcd409) | inhibition at 20 µM (CHK1) [%] | Ki [4] [nM] | inhibition at 1 µM (FGF-R1) [%] | IC50 ([3]; MV522, Table 3) [nM] | inhibition at 1 µM (LCK tyrosine kinase) [%] | IC50 ([2]; Table 3) [nM] | further results
1 | COc1cc(Nc2nc(N)c(-c3nc(-c4cccc(C(=O)Nc5ccc(C(C)C)c(C)c5)c4)cs3)s2)cc(OC)c1OC [A(34), 3-[4′-Amino-2′-(3,4,5-trimethoxy-phenylamino)-[2,5′]bithiazolyl-4-yl]-N-(4-isopropyl-3-methyl-phenyl)-benzamide] | −3% and −8% and −13% |  |  |  |  |  |  | % inhibition @ 20 μM (CHK1): 4.6% and −3.4%
2 | Cc1ccc(Nc2nc(N)c(-c3nc(-c4cccc(NC(=O)OCc5ccccc5)c4)cs3)s2)cc1 [A(36), [3-(4′-Amino-2′-p-tolylamino-[2,5′]bithiazolyl-4-yl)-phenyl]-carbamic acid benzyl ester] | −6% and −11% and −15% | 2.8 |  |  |  |  |  | FLVK-P % inhibition @ 0.05 ([1]; Table 1, at 0.05, concentration unit not printed (head nM)): 36% @
3 | Nc1nc(Nc2ccc3c(=O)[nH][nH]c(=O)c3c2)sc1-c1nc(-c2cccc(NC(=O)c3ccccc3)c2)cs1 [A(49), N-{3-[4′-Amino-2′-(1,4-dioxo-1,2,3,4-tetrahydro-phthalazin-6-ylamino)-[2,5′]bithiazolyl-4-yl]-phenyl}-benzamide] | −13% and −7% and −10% | 14.1 |  |  |  |  |  | 
4 | Nc1nc(Nc2cccnc2)sc1-c1nc(-c2cccc(NC(=O)c3ccccc3)c2)cs1 [A(53), 3-(4′-Amino-4-(3-benzamidophenyl)-[2,5′]bithiazolyl-2′-ylamino)-pyridine] | −10% and −8% | 4 |  |  |  |  |  | Ki ([1]; Table 1): 24 nM; IC50 ([2]; Table 1): 370 nM; IC50 ([3]; MV522, Table 1): > 10000 nM
5 | CCOC(=O)c1csc(-c2sc(Nc3ccc(S(N)(=O)=O)cc3)nc2N)n1 [A(68), Ethyl 4′-amino-2′-(4-sulfamoyl-phenylamino)-[2,5′]bithiazolyl-4-carboxylate] |  |  |  |  |  |  |  | Ki (CDK2/Cyclin A complex): 130 nM; Ki (CDK4/Cyclin D3 complex): 4500 nM; inhibition at 10 µM (FAKcd409): -18%
6 | CCOC(=O)c1nc(-c2sc(Nc3ccc(S(N)(=O)=O)cc3)nc2N)sc1Cc1ccccc1 [A(73), 4′-Amino-5-benzyl-2′-(4-sulfamoyl-phenylamino)-[2,5′]bithiazolyl-4-carboxylic acid ethyl ester] | −23% and −30% | 14.3 |  |  |  |  |  | CDK2 % inhibition @ 100 (CDK2/Cyclin A complex; at 100 (printed 100 or 100 μM)): 36% @; inhibition at 100 µM (CDK4/Cyclin D3 complex; at 100 (printed 100 or 100 μM)): < 0%; % inhibition @ 20 μM (CHK1): 14.4% and 7.3%
7 | COc1cc(Nc2nc(N)c(-c3nc(-c4cc(NC(=O)OC(C)(C)C)c(F)cc4Cl)no3)s2)cc(OC)c1OC [B(14), (5-{5-[4-Amino-2-(3,4,5-trimethoxy-phenylamino)-thiazol-5-yl]-[1,2,4]oxadiazol-3-yl}-4-chloro-2-fluoro-phenyl)-carbamic acid tert-butyl ester] |  |  | 0.76 | 46 | > 10000 | 10 | 11 | inhibition at 0.05 µM [1]: 13%
8 | COc1cccc(C(=O)Nc2cc(-c3noc(-c4sc(Nc5cc(OC)c(OC)c(OC)c5)nc4N)n3)c(Cl)cc2F)c1 [D(70), N-(5-{5-[4-Amino-2-(3,4,5-trimethoxy-phenylamino)-thiazol-5-yl]-[1,2,4]oxadiazol-3-yl}-4-chloro-2-fluoro-phenyl)-3-methoxy-benzamide TFA salt] |  |  | 3.5 | 59 | > 10000 | 61 | 5.4 | inhibition at 0.05 µM [1]: 91%

Continued, in another order:

Row | % inhibition of FAK (FAKcd409) | inhibition at 20 µM (CHK1) [%] | Ki [4] [nM] | inhibition at 1 µM (FGF-R1) [%] | IC50 ([3]; MV522, Table 3) [nM] | inhibition at 1 µM (LCK tyrosine kinase) [%] | Compound | IC50 ([2]; Table 3) [nM] | further results
9 |  | 1 |  |  |  |  | CCOC(=O)c1cccc(Nc2nc(N)c(-c3nc(-c4cccc(NC(=O)c5ccccc5)c4)cs3)s2)c1 [A(40), 3-[4′-Amino-4-(3-benzoylaminophenyl)-[2,5′]bithiazolyl-2′-ylamino]-benzoic acid ethyl ester] |  | inhibition at 10 µM (FAKcd409): -6%
10 | −15% and −5% and −10% | -7.1 |  |  |  |  | Cc1cccc(Nc2nc(N)c(-c3nc(-c4cccc(NC(=O)c5ccccc5)c4)cs3)s2)c1 [A(44), [3-(4′-Amino-2′-m-tolylamino-[2,5′]bithiazolyl-4-yl)-phenyl]-benzamide] |  | 
11 | −13% and −4% and −6% | -1 |  |  |  |  | Nc1nc(Nc2ccc3c(c2)OCCO3)sc1-c1nc(-c2cccc(NC(=O)c3ccccc3)c2)cs1 [A(45), N-{3-[4′-Amino-2′-(2,3-dihydro-benzo[1,4]dioxin-6-ylamino)-[2,5′]bithiazolyl-4-yl]-phenyl}-benzamide] |  | Ki ([1]; Table 1): 9.7 nM
12 | −2% and −8% | 1.3 |  |  |  |  | CC(=O)Nc1cc(Nc2nc(N)c(-c3nc(-c4cccc(NC(=O)c5ccccc5)c4)cs3)s2)ccc1C [A(48), N-{3-[2′-(3-Acetylamino-4-methyl-phenylamino)-4′-amino-[2,5′]bithiazolyl-4-yl]-phenyl}-benzamide] |  | Ki ([1]; Table 1): 3.1 nM; IC50 ([2]; Table 1): 350 nM; IC50 ([3]; MV522, Table 1): > 10000 nM
13 |  |  | 0.9 | 49 | > 10000 | 35 | COc1cccc(C(=O)Nc2ccc(F)c(-c3noc(-c4sc(Nc5cc(OC)c(OC)c(OC)c5)nc4N)n3)c2)c1 [D(72), 3-[2-fluoro-5-[(3-methoxybenzoyl)amino]-phenyl]-5-[2-[(3,4,5-trimethoxyphenyl)amino]-4-amino-5-thiazolyl]-1,2,4-oxadiazole] | 4.7 | 
14 |  |  | 1.2 | 56 | 4450 | 41 | COc1cc(Nc2nc(N)c(-c3nc(-c4cc(NC(=O)c5cccc(Cl)c5)ccc4F)no3)s2)cc(OC)c1OC [D(73)] | 6 | 
15 |  |  | 0.26 | 25 | 9600 | 15 | CNC(=O)Nc1nc(N)c(-c2nc(-c3cccc(NC(=O)c4cccc(OC)c4)c3)cs2)s1 [F(11), N-{3-[4′-Amino-2′-(3-methyl-ureido)-[2,5′]bithiazolyl-4-yl]-phenyl}-3-methoxy-benzamide] | 12 | 
16 |  |  | 0.19 | 33 | 44000 | 21 | Cc1cccc(C(=O)Nc2cccc(-c3noc(-c4sc(NC(=O)NCCCN5CCOCC5)nc4N)n3)c2)c1 [O(12), N-[3-(5-{4-Amino-2-[3-(3-morpholin-4-yl-propyl)-ureido]-thiazol-5-yl}-[1,2,4]oxadiazol-3-yl)-phenyl]-3-methyl-benzamide] | 45 | 
